Literature values, collected in patent publication US11759428B2, “Pharmaceutical formulation comprising esomeprazole and sodium bicarbonate” (CHONG KUN DANG PHARMACEUTICAL CORP., priority 2018, dated 2023).

Conditions: aqueous solution having 3 or lower of pH

## COc1ccc2nc([S@@+]([O-])Cc3ncc(C)c(OC)c3C)[nH]c2c1 [esomeprazole, (S)-5-methoxy-2-[(4-methoxy-3,5-dimethyl-2-pyridinyl)-methyl]sulfinyl-1H-benzimid azol]
  degradation half-life: less than 10 minutes
